{"source": "ChEMBL document CHEMBL1148995", "about": "“Antitumor agents from bohemic acid complex, VI. Schaunardimycin” (J Nat Prod, 1984)", "key": {"L1210 [1]": {"system": "L1210", "experiment": "Antitumor activity against mouse L1210 cells implanted in CDF1 mouse assessed as median survival time at 12.8 mg/kg, ip single dose on day 1", "type": "functional", "conditions": "route intraperitoneal; call rule not given here"}, "L1210 [2]": {"system": "L1210", "experiment": "Antitumor activity against mouse L1210 cells implanted in CDF1 mouse assessed as median survival time at 6.4 mg/kg, ip single dose on day 1", "type": "functional", "conditions": "route intraperitoneal"}, "L1210 [3]": {"system": "L1210", "experiment": "Antitumor activity against mouse L1210 cells implanted in CDF1 mouse assessed as median survival time at 3.2 mg/kg, ip single dose on day 1", "type": "functional", "conditions": "route intraperitoneal"}, "L1210 [4]": {"system": "L1210", "experiment": "Antitumor activity against mouse L1210 cells implanted in CDF1 mouse assessed as median survival time at 1.6 mg/kg, ip single dose on day 1", "type": "functional", "conditions": "route intraperitoneal"}, "L1210 [5]": {"system": "L1210", "experiment": "Antitumor activity against mouse L1210 cells implanted in CDF1 mouse assessed as median survival time at 0.8 mg/kg, ip single dose on day 1", "type": "functional", "conditions": "route intraperitoneal"}, "L1210 [6]": {"system": "L1210", "experiment": "Antitumor activity against mouse L1210 cells implanted in CDF1 mouse assessed as median survival time at 0.4 mg/kg, ip single dose on day 1", "type": "functional", "conditions": "route intraperitoneal"}, "L1210 [7]": {"system": "L1210", "experiment": "Antitumor activity against mouse L1210 cells implanted in CDF1 mouse assessed as median survival time at 0.2 mg/kg, ip single dose on day 1", "type": "functional", "conditions": "route intraperitoneal"}, "L1210 [8]": {"system": "L1210", "experiment": "Antitumor activity against mouse L1210 cells implanted in CDF1 mouse at 12.8 mg/kg, ip single dose on day 1 relative to control", "type": "functional", "conditions": "route intraperitoneal"}, "L1210 [9]": {"system": "L1210", "experiment": "Antitumor activity against mouse L1210 cells implanted in CDF1 mouse at 6.4 mg/kg, ip single dose on day 1 relative to control", "type": "functional", "conditions": "route intraperitoneal"}, "L1210 [10]": {"system": "L1210", "experiment": "Antitumor activity against mouse L1210 cells implanted in CDF1 mouse at 3.2 mg/kg, ip single dose on day 1 relative to control", "type": "functional", "conditions": "route intraperitoneal"}, "L1210 [11]": {"system": "L1210", "experiment": "Antitumor activity against mouse L1210 cells implanted in CDF1 mouse at 1.6 mg/kg, ip single dose on day 1 relative to control", "type": "functional", "conditions": "route intraperitoneal"}, "L1210 [12]": {"system": "L1210", "experiment": "Antitumor activity against mouse L1210 cells implanted in CDF1 mouse at 0.8 mg/kg, ip single dose on day 1 relative to control", "type": "functional", "conditions": "route intraperitoneal"}, "L1210 [13]": {"system": "L1210", "experiment": "Antitumor activity against mouse L1210 cells implanted in CDF1 mouse at 0.4 mg/kg, ip single dose on day 1 relative to control", "type": "functional", "conditions": "route intraperitoneal"}, "L1210 [14]": {"system": "L1210", "experiment": "Antitumor activity against mouse L1210 cells implanted in CDF1 mouse at 0.2 mg/kg, ip single dose on day 1 relative to control", "type": "functional", "conditions": "route intraperitoneal"}, "Mus musculus [15]": {"system": "Mus musculus", "experiment": "Toxicity in mouse L1210 cells implanted CDF1 mouse assessed as average weight gain at 12.8 mg/kg, ip single dose on day 1", "type": "organism-based", "design": "dose 12.8 mg/kg, route intraperitoneal", "conditions": "in vivo"}, "Mus musculus [16]": {"system": "Mus musculus", "experiment": "Toxicity in mouse L1210 cells implanted CDF1 mouse assessed as average weight gain at 6.4 mg/kg, ip single dose on day 1", "type": "organism-based", "design": "dose 6.4 mg/kg, route intraperitoneal", "conditions": "in vivo"}, "Mus musculus [17]": {"system": "Mus musculus", "experiment": "Toxicity in mouse L1210 cells implanted CDF1 mouse assessed as average weight gain at 3.2 mg/kg, ip single dose on day 1", "type": "organism-based", "design": "dose 3.2 mg/kg, route intraperitoneal", "conditions": "in vivo"}, "Mus musculus [18]": {"system": "Mus musculus", "experiment": "Toxicity in mouse L1210 cells implanted CDF1 mouse assessed as average weight gain at 1.6 mg/kg, ip single dose on day 1", "type": "organism-based", "design": "dose 1.6 mg/kg, route intraperitoneal", "conditions": "in vivo"}, "Mus musculus [19]": {"system": "Mus musculus", "experiment": "Toxicity in mouse L1210 cells implanted CDF1 mouse assessed as average weight gain at 0.8 mg/kg, ip single dose on day 1", "type": "organism-based", "design": "dose 0.8 mg/kg, route intraperitoneal", "conditions": "in vivo"}, "Mus musculus [20]": {"system": "Mus musculus", "experiment": "Toxicity in mouse L1210 cells implanted CDF1 mouse assessed as average weight gain at 0.4 mg/kg, ip single dose on day 1", "type": "organism-based", "design": "dose 0.4 mg/kg, route intraperitoneal", "conditions": "in vivo"}, "Mus musculus [21]": {"system": "Mus musculus", "experiment": "Toxicity in mouse L1210 cells implanted CDF1 mouse assessed as average weight gain at 0.2 mg/kg, ip single dose on day 1", "type": "organism-based", "design": "dose 0.2 mg/kg, route intraperitoneal", "conditions": "in vivo"}, "Mus musculus [22]": {"system": "Mus musculus", "experiment": "Toxicity in mouse L1210 cells implanted CDF1 mouse assessed as survivors on day 5 at 6.4 mg/kg, ip single dose on day 1", "type": "organism-based", "design": "dose 6.4 mg/kg, route intraperitoneal", "conditions": "in vivo"}, "Mus musculus [23]": {"system": "Mus musculus", "experiment": "Toxicity in mouse L1210 cells implanted CDF1 mouse assessed as survivors on day 5 at 3.2 mg/kg, ip single dose on day 1", "type": "organism-based", "design": "dose 3.2 mg/kg, route intraperitoneal", "conditions": "in vivo"}, "Mus musculus [24]": {"system": "Mus musculus", "experiment": "Toxicity in mouse L1210 cells implanted CDF1 mouse assessed as survivors on day 5 at 1.6 mg/kg, ip single dose on day 1", "type": "organism-based", "design": "dose 1.6 mg/kg, route intraperitoneal", "conditions": "in vivo"}, "Mus musculus [25]": {"system": "Mus musculus", "experiment": "Toxicity in mouse L1210 cells implanted CDF1 mouse assessed as survivors on day 5 at 0.8 mg/kg, ip single dose on day 1", "type": "organism-based", "design": "dose 0.8 mg/kg, route intraperitoneal", "conditions": "in vivo"}, "Mus musculus [26]": {"system": "Mus musculus", "experiment": "Toxicity in mouse L1210 cells implanted CDF1 mouse assessed as survivors on day 5 at 0.4 mg/kg, ip single dose on day 1", "type": "organism-based", "design": "dose 0.4 mg/kg, route intraperitoneal", "conditions": "in vivo"}, "Mus musculus [27]": {"system": "Mus musculus", "experiment": "Toxicity in mouse L1210 cells implanted CDF1 mouse assessed as median survival time at 25.6 mg/kg, ip single dose on day 1", "type": "organism-based", "design": "dose 25.6 mg/kg, route intraperitoneal", "conditions": "in vivo"}, "L1210 [28]": {"system": "L1210", "experiment": "Antitumor activity against mouse L1210 cells implanted in CDF1 mouse at 0.2 mg/kg, ip qd for 1 to 5 days relative to control", "type": "functional", "conditions": "route intraperitoneal"}}}
{"smiles": "CC[C@@]1(O)C[C@H](O[C@H]2C[C@H](N(C)C)[C@H](O[C@H]3C[C@H](O)[C@H](O[C@H]4C[C@H](O)[C@H](O)[C@H](C)O4)[C@H](C)O3)[C@H](C)O2)c2c(cc3c(c2O)C(=O)c2c(O)ccc(O)c2C3=O)[C@H]1C(=O)OC", "note": "[MARCELLOMYCIN]", "values": [{"measurement": "MST", "setting": "L1210 [1]", "value": 9.5, "unit": "days"}, {"measurement": "MST", "setting": "L1210 [2]", "value": 8.5, "unit": "days"}, {"measurement": "MST", "setting": "L1210 [3]", "value": 8.5, "unit": "days"}, {"measurement": "MST", "setting": "L1210 [4]", "value": 8, "unit": "days"}, {"measurement": "MST", "setting": "L1210 [5]", "value": 7, "unit": "days"}, {"measurement": "MST", "setting": "L1210 [6]", "value": 6.5, "unit": "days"}, {"measurement": "MST", "setting": "L1210 [7]", "value": 6, "unit": "days"}, {"measurement": "T/C", "setting": "L1210 [8]", "value": 158, "unit": "%"}, {"measurement": "T/C", "setting": "L1210 [9]", "value": 142, "unit": "%"}, {"measurement": "T/C", "setting": "L1210 [10]", "value": 142, "unit": "%"}, {"measurement": "T/C", "setting": "L1210 [11]", "value": 133, "unit": "%"}, {"measurement": "T/C", "setting": "L1210 [12]", "value": 117, "unit": "%"}, {"measurement": "T/C", "setting": "L1210 [13]", "value": 108, "unit": "%"}, {"measurement": "T/C", "setting": "L1210 [14]", "value": 100, "unit": "%"}, {"measurement": "Activity", "setting": "Mus musculus [15]", "value": -1.9, "unit": "g"}, {"measurement": "Activity", "setting": "Mus musculus [16]", "value": -1.7, "unit": "g"}, {"measurement": "Activity", "setting": "Mus musculus [17]", "value": -0.5, "unit": "g"}, {"measurement": "weight gain", "setting": "Mus musculus [18]", "value": 1.4, "unit": "g"}, {"measurement": "weight gain", "setting": "Mus musculus [19]", "value": 1.8, "unit": "g"}, {"measurement": "weight gain", "setting": "Mus musculus [20]", "value": 2.8, "unit": "g"}, {"measurement": "weight gain", "setting": "Mus musculus [21]", "value": 2.7, "unit": "g"}, {"measurement": "Activity", "setting": "Mus musculus [22]", "value": "Active"}, {"measurement": "Activity", "setting": "Mus musculus [23]", "value": "Active"}, {"measurement": "Activity", "setting": "Mus musculus [24]", "value": "Active"}, {"measurement": "Activity", "setting": "Mus musculus [25]", "value": "Active"}, {"measurement": "Activity", "setting": "Mus musculus [26]", "value": "Active"}, {"measurement": "Activity", "setting": "Mus musculus [27]", "value": "Toxic"}, {"measurement": "T/C", "setting": "L1210 [28]", "value": 117, "unit": "%"}]}
